Measured values: patent US8304443B2, “Indazole derivatives” (Asahi Kasei Pharma Corporation, priority 2008, dated 2012)
≈ marks a conversion by molar mass, not a printed value.

Assays:
[1] = Test example 12: solubility test in physiological saline; assay type: physicochemical; details: saline or isotonic, thermodynamic from solid, 37° C., prepared at 1000 μg/mL
Method: (§1) 500 μg of the test compound is precisely weighed, and then added with hydrochloric acid buffer solution having pH 1.2 until the concentration of 1000 μg/mL is obtained. The […] is shaken at 37° C. for 1 hour. To a filter tube, the entire solution obtained after the shaking is transferred and is subjected to centrifugal filtration at room temperature. The filtrate is analyzed by HPLC, and by using a calibration curve, saturation solubility of the test compound is obtained from the peak area value.
Except that the hydrochloric acid buffer solution having pH 1.2 is replaced with physiological saline, the test is carried out in the same method as Test example 11 to obtain the solubility of the test compound.

[2] = biological target: T1, human β2 adrenergic receptor (Homo sapiens, UniProt P07550); assay: Test example 3-B: human β2 adrenergic receptor agonist activity; assay type: cell-based; details: read-out: β2 receptor I.A.
T1 construct: expressed in transfected cells; host or cells: CHO (Chinese hamster ovary) cells, pcDNA3
T1 sequence (P07550 whole entry): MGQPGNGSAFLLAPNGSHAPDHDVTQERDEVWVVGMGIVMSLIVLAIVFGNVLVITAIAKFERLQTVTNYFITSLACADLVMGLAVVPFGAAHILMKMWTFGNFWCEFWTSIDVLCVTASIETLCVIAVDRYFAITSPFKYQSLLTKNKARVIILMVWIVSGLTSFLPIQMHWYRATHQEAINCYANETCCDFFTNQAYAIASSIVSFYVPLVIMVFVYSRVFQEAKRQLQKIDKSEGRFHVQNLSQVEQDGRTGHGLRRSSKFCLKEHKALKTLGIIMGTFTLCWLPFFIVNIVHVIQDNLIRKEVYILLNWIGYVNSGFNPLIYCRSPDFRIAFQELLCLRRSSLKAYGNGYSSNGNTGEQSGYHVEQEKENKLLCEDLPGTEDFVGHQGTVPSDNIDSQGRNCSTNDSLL

[3] = biological target: T2, human α1A adrenergic receptor (Homo sapiens, UniProt P35348); assay: Test example 4: human α1A adrenergic receptor agonist activity (Ca flux, Fura-2); assay type: cell-based; details: for Emax: Table 4, Test example 4, maximum response to norephinephrine taken as 100%, read-out: α1A receptor I.A.
T2 construct: expressed in transfected cells; host or cells: HEK293 cells, pcDNA3.1(−), geneticin-selected
T2 sequence (P35348 1-466): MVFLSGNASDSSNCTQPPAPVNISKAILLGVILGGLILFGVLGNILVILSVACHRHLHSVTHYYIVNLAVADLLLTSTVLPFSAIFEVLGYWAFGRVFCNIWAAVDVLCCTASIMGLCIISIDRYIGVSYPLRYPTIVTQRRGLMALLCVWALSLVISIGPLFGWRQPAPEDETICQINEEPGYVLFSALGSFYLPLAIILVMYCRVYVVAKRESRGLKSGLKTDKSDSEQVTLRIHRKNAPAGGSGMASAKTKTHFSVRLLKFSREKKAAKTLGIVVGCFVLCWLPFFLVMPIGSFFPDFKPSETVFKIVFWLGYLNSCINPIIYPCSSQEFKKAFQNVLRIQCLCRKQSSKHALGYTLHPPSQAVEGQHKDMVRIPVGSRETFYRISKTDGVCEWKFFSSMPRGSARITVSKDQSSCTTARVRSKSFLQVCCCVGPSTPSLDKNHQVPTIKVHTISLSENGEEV
Method: Human α1A adrenergic receptor agonist activity is determined by using HEK293 cells transfected with pcDNA3.1(−) (Invitrogen) to which human α1A gene has been inserted. These cells are cultured in a DMEM medium containing 10% fetal bovine serum, 400 μg/mL geneticin (Gibco BRL), 100 U/ml penicillin and 100 μg/ml streptomycin. […] After carrying out the loading for 30 minutes in a CO2 incubator, excess Fura-2AM is removed by washing the cells twice with the assay buffer. The cells obtained after the centrifuge is prepared to 5×10^6 cells/ml by using the assay buffer, and aliquoted into a 96-well UV plate (manufactured by Corning Inc.) to give a cell plate (80 μl/well). […] After the measurement for about 30 seconds, 20 μl of the test sample from the sample plate is added to the cell plate and the measurement is continued for another 270 seconds. Ca flux caused by the test compound is obtained from the peak height difference between the maximum value of fluorescence intensity ratio at 340 nm and 380 nm after the addition of the test compound and the fluorescence intensity ratio before the addition of the test compound. Maximum response to norephinephrine as a positive control is taken as 100%, and the maximum response ratio of each test compound is obtained as Intrinsic Activity [I.A. (%)].

[4] = biological target: T3, human β1 adrenergic receptor (Homo sapiens, UniProt P08588); assay: Test example 2-B: human β1 adrenergic receptor agonist activity; assay type: cell-based; details: 0.5 h; read-out: β1 receptor I.A.
T3 construct: expressed in transfected cells; host or cells: CHO (Chinese hamster ovary) cells, pcDNA3
T3 sequence (P08588 whole entry): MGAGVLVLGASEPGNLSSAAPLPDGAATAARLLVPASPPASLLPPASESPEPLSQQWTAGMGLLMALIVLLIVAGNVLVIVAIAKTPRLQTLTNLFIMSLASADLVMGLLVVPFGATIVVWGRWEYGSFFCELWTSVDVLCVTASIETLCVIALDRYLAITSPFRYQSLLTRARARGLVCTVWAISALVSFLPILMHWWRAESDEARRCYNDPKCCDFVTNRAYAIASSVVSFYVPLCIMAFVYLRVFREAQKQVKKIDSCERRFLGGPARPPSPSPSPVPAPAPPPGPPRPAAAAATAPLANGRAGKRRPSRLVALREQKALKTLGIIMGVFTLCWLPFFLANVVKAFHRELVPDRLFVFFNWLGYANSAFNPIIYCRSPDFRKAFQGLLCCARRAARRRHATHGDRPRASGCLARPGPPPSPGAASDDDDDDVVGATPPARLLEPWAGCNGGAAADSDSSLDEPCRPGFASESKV

[5] = Test example 10: saturation solubility in pure water; assay type: physicochemical; details: thermodynamic from solid, room temperature, shaken 1 hour
Method: Test compound is prepared to saturation state in pure water. The resulting solution is shaken at room temperature for 1 hour. To a filter tube, the entire solution obtained after the shaking is transferred and is subjected to centrifugal filtration at room temperature. The filtrate is analyzed by HPLC, and by using a calibration curve, saturation solubility of the test compound is obtained from the peak area value.
Standard solution is prepared by precisely weighing each test compound and fully dissolving it in pure water. Calibration curve is established by having the concentration of the standard solution as a horizontal axis and the HPLC area value at the corresponding concentration as a vertical axis.
(§2) As a separation column, YMC-Pack C18 (4.6 mm×150 mm, manufactured by YMC) is used. Detection is made at UV-254 nm and the temperature inside the column is 40° C. Condition for elution is as follows; with flow rate of 1 ml/minute, solution A as a solvent=water [comprising 0.1% (v/v) acetic acid] and solution B=acetonitrile are used, and from minute 0 to minute 20, 5 to 98% (v/v) linear gradient of solution B is applied, followed by elution with 98% of solution B until minute 25 and elution with 5% of solution B from minute 25.01 to minute 35.

[6] = Test example 11: solubility test in hydrochloric acid buffer solution having pH 1.2; assay type: physicochemical; details: 37 °C, pH 1.2, simulated gastric fluid, thermodynamic from solid, pH 1.2, 37° C., prepared at 1000 μg/mL
Method: as §1
Standard solution is prepared by precisely weighing 500 μg of the test compound and dissolving it DMSO to obtain the concentration of 1 mg/mL.
as §2

SMILES: CS(=O)(=O)Nc1cccc([C@@H](O)CNCCOc2ccc3c(C4CC4)n[nH]c3c2)c1 [Example 1, (R)—N-(3-(1-Hydroxy-2-(2-(3-cyclopropylindazol-6-yloxy)ethylamino)ethyl)phenyl)methanesulfonamide]
- solubility at 1 h [1]: 999 µg/mL (≈ 2320 µM)
- Emax [2]: 6.3%
- EC50 [3]: 1.67 µM
- Emax [3]: 20%
- Emax [4]: 10%
- solubility at 1 h [5]: 55000 µg/mL (≈ 128000 µM)
- solubility at 1 h [6]: 982 µg/mL (≈ 2280 µM)

SMILES: CS(=O)(=O)Nc1cccc([C@@H](O)CNCCOc2ccc3c(C4CCC4)n[nH]c3c2)c1 [Example 2, (R)—N-(3-(1-Hydroxy-2-(2-(3-cyclobutylindazol-6-yloxy)ethylamino)ethyl)phenyl)methanesulfonamide]
- solubility at 1 h [1]: 999 µg/mL (≈ 2250 µM)
- Emax [2]: 3.8%
- Emax [3]: 10%
- Emax [4]: 9.9%
- solubility at 1 h [5]: 53000 µg/mL (≈ 119000 µM)
- solubility at 1 h [6]: > 1000 µg/mL
